This is an account of results in US9623017B2 (priority 2014, dated 2017).

Data set [1] can be described thus: Solubility of the cocrystal in heptane. It counts as physicochemical. The source says: A drug-in-adhesive transdermal patch of the invention may be manufactured using methods known in the art. The 4:3 naltrexone: 5-methyl-2-furaldehyde cocrystal particles may be incorporated into the drug-in-adhesive layer also using known methods such as melt blending. The 4:3 naltrexone: 5-methyl-2-furaldehyde cocrystal particles may be dispersed in a liquid in which the cocrystal is not soluble or only sparingly soluble (a “non-solvent”) and then added to a solution of the other drug-in-adhesive layer components in that same liquid. Alternatively, the 4:3 naltrexone: 5-methyl-2-furaldehyde cocrystal particles may be dispersed into the solution of the drug-in-adhesive components itself. Use of a non-solvent ensures that the cocrystal retains its crystalline form while forming the drug-in-adhesive layer. For the 4:3 naltrexone: 5-methyl-2-furaldehyde cocrystal, such a liquid will generally be a non-polar organic solvent. An example of such a solvent is heptane in which the 4:3 naltrexone: 5-methyl-2-furaldehyde cocrystal has a solubility of only 0.1 mg/mL at 5° C. and of 0.2 mg/mL at 50° C. Alternatively, the 4:3 naltrexone: 5-methyl-2-furaldehyde cocrystal particles may be incorporated into the drug-in-adhesive layer also using known methods such as melt blending.

Data set [2] is described as follows: Dynamic vapor sorption (DVS) analysis, Hiden IGAsorp. It counts as physicochemical. The procedure:
Approximately 10 mg of sample was placed into a mesh vapor sorption balance pan and loaded into a Hiden IGAsorp by Hiden. The sample was subjected to a ramping profile from 40-90% relative humidity (RH) at 10% increments, maintaining the sample at each step until a stable weight had been achieved (99.5% step completion). After completion of the sorption cycle, the sample was dried using the same procedure to 0% RH the sample was then subsequently taken back to 40% RH using the same procedure.
A DVS analysis of the 4:3 naltrexone: 5-methyl-2-furaldehyde cocrystal was performed using Hiden IGAsorp method.

A short description of data set [3]: Skin flux evaluation, Franz Cell Diffusion method. It counts as in vitro ADME, human. The following applies: film without lidocaine (n=7) vs patch with lidocaine, 32° C., 72-hour period. The procedure: The diffusion of lidocaine API and naltrexone from the 4:3 naltrexone: 5-methyl-2-furaldehyde cocrystal in the transdermal patch to the skin was studied using a Franz Cell Diffusion (FCD) method. In the method, transdermal patches were placed on top of heat-separated human cadaver skin. The receptor solution (0.01M phosphate buffer, pH 5.76) was analyzed for lidocaine and naltrexone content over time by HPLC using the methods discussed above. In one set of experiments the method used four transdermal patches (n=4) and was carried out at 32° C. […] In another set of experiments a similar film was prepared as above without lidocaine (Dow Medical Fluid 100-5%/Dow 7-4201-88%/NTX-Co-7%). NTX-Co transdermal flux (n=7) was measured through heat-separated human cadaver skin using Franz Cell Diffusion cells at 32° C.

“4:3 naltrexone: 5-methyl-2-furaldehyde cocrystal”: the solubility in heptane amounted to 100 µg/mL in data set [1] (5° C.) and 200 µg/mL in data set [1] (50° C.). Also, in data set [2] (DVS kinetic analysis), the “hygroscopicity (DVS)” value is “not hygroscopic”. For the same substance, the “XRPD pattern of material reclaimed after DVS experiment” value in data set [2] (after DVS cycle, compared with FIG. 1) was “same XRPD pattern as in FIG. 1”. In data set [2] (ramping 40-90% RH, drying to 0% RH, back to 40% RH), the “mass change (DVS)” value is recorded as under 3%. In addition, the transdermal flux result in data set [3] was “lower in the absence of lidocaine”.
